Test results from ChEMBL document CHEMBL4732091, “Design, synthesis and biological evaluation of novel thiosemicarbazone-indole derivatives targeting prostate cancer cells” (Eur J Med Chem, 2021).
Active and inactive are the calls of the source. No cut-off for these calls is given here.

Key:
DU-145 [1] = test: Antiproliferative activity against human DU-145 cell line cells assessed as inhibition of cell proliferation measured after 72 hrs by MTT assay; type: functional, cell-based; settings: DU-145, 72 h
MCF7 = test: Antiproliferative activity against human MCF7 cell line cells assessed as inhibition of cell proliferation measured after 72 hrs by MTT assay; type: functional, cell-based; settings: MCF7, 72 h
PC-3 [2] = test: Antiproliferative activity against human PC-3 cells assessed as reduction in colony formation at 12.5 to 50 nM measured after 6 days by crystal violet staining based colony assay; type: functional, cell-based; settings: dose 12.5-50 nM, time 6.0 day
DU-145 [3] = test: Antiproliferative activity against human DU-145 cells assessed as reduction in colony formation at 0.25 to 1 uM measured after 6 days by crystal violet staining based colony assay; type: functional, cell-based; settings: dose 0.25-1 µM, time 6.0 day
PC-3 [4] = test: Induction of cell cycle arrest in human PC-3 cells assessed as accumulation at G1/S phase at 125 nM measured after 48 hrs by propidium iodide staining based flowcytometry method (reference value: 19.23%); type: functional
DU-145 [5] = test: Induction of cell cycle arrest in human DU-145 cells assessed as accumulation at G1/S phase measured after 48 hrs by PI staining based Flowcytometry method; type: functional; settings: dose 1.5-6 µM
PC-3 [6] = test: Cell cycle arrest in human PC-3 cells assessed as accumulation of cells in G1/S phase by measuring upregulation of p27 measured after 48 hrs by Western blot assay; type: functional, cell-based; settings: dose 125-500 nM
DU-145 [7] = test: Cell cycle arrest in human DU-145 cells assessed as accumulation of cells in G1/S phase by measuring upregulation of p27 measured after 48 hrs by Western blot assay; type: functional, cell-based; settings: dose 1.5-6 µM
DU-145 [8] = test: Induction of apoptosis in human DU-145 cells assessed as cell rounding at 0.5 to 2 uM measured after 72 hrs by Hoechst staining based fluorescence method; type: functional; settings: dose 0.5-2 µM
PC-3 [9] = test: Induction of apoptosis in human PC-3 cells assessed as viable cells at 25 nM measured after 72 hrs by Annexin V-FITC/propidium iodide staining based flow cytometry method (reference value: 97.2 %); type: functional; settings: read-out: Activity
PC-3 [10] = test: Induction of apoptosis in human PC-3 cells assessed as early apoptotic cells at 25 nM measured after 72 hrs by Annexin V-FITC/propidium iodide staining based flow cytometry method (reference value: 0.452 %); type: functional
PC-3 [11] = test: Induction of apoptosis in human PC-3 cells assessed as late apoptotic cells at 25 nM measured after 72 hrs by Annexin V-FITC/propidium iodide staining based flow cytometry method (reference value: 1.01 %); type: functional
PC-3 [12] = test: Induction of apoptosis in human PC-3 cells assessed as early apoptotic cells at 50 nM measured after 72 hrs by Annexin V-FITC/propidium iodide staining based flow cytometry method (Rvb 0.452 %); type: functional
PC-3 [13] = test: Induction of apoptosis in human PC-3 cells assessed as necrotic cells at 50 nM measured after 72 hrs by Annexin V-FITC/propidium iodide staining based flow cytometry method (reference value: 1.2 %); type: functional
PC-3 [14] = test: Induction of apoptosis in human PC-3 cells assessed as early apoptotic cells at 100 nM measured after 72 hrs by Annexin V-FITC/propidium iodide staining based flow cytometry method (reference value: 0.452 %); type: functional
DU-145 [15] = test: Induction of apoptosis in human DU-145 cells assessed as viable cells at 0.5 uM measured after 72 hrs by Annexin V-FITC/propidium iodide staining based flow cytometry method (reference value: 96.3 %); type: functional; settings: read-out: Activity
DU-145 [16] = test: Induction of apoptosis in human DU-145 cells assessed as viable cells at 1 uM measured after 72 hrs by Annexin V-FITC/propidium iodide staining based flow cytometry method (reference value: 96.3 %); type: functional; settings: read-out: Activity
DU-145 [17] = test: Induction of apoptosis in human DU-145 cells assessed as late apoptotic cells at 1 uM measured after 72 hrs by Annexin V-FITC/propidium iodide staining based flow cytometry method (reference value: 1.77 %); type: functional
DU-145 [18] = test: Induction of apoptosis in human DU-145 cells assessed as late apoptotic cells at 2 uM measured after 72 hrs by Annexin V-FITC/propidium iodide staining based flow cytometry method (reference value: 1.77 %); type: functional
DU-145 [19] = test: Induction of apoptosis in human DU-145 cells assessed as increase in PARP at 0.5 to 2 uM measured by Western blot assay; type: functional, cell-based; settings: dose 0.5-2 µM
PC-3 [20] = test: Induction of ROS generation in human PC-3 cells assessed as increase in intracellular ROS level measured after 48 hrs by DCFH-DA staining based flowcytometry method; type: functional, cell-based; settings: dose 25-100 nM
DU-145 [21] = test: Induction of ROS generation in human DU-145 cells assessed as increase in intracellular ROS level at 250 nM pretreated with NAC followed by compound treatment measured after 48 hrs by DCFH-DA staining based flowcytometry method; type: functional, cell-based
DU-145 [22] = test: Activation of MAPK signaling in human DU-145 cells assessed as increase in phosphorylated ERK 1/2 (Thr 202/Tyr 204) at 125 to 500 nM measured by Western blot assay; type: cell-based; settings: filed as activator, dose 125-500 nM
DU-145 [23] = test: Activation of MAPK signaling in human DU-145 cells assessed as increase in phosphorylated JNK (Thr 183/Tyr 185) at 125 to 500 nM measured by Western blot assay; type: cell-based; settings: filed as activator, dose 125-500 nM
DU-145 [24] = test: Cytotoxicity against human DU-145 cells assessed as cell viability pre-treated with SB203580 for 4 hrs followed by compound treatment and measured after 72 hrs by MTT assay; type: functional, cell-based
[25] = Toxicity in C57BL/6 mouse assessed as change in body weight at 2 mg/kg, IG measured after 2 weeks; type: organism-based; settings: in vivo, po, 336 h
PC-3 [26] = test: Antitumour activity against human PC-3 cells xenografted in BALB/c-NU mouse assessed as reduction in tumour growth at 25 mg/kg, IG qd measured after 21 days relative to control; type: functional; set-up: scale not given: the % may be the effect or the level left; settings: time 21 day
DU-145 [27] = test: Antiproliferative activity against human DU-145 cells assessed as inhibition of cell proliferation at 0.156 to 20 uM by MTT assay; type: functional, cell-based; settings: dose 0.156-20 µM, time 24-72 hrs, TDE = time-dependent effect
PC-3 [28] = test: Induction of apoptosis in human PC-3 cells assessed as formation of apoptotic bodies at 25 to 100 nM measured after 72 hrs by Hoechst staining based fluorescence microscope method; type: functional, cell-based; settings: dose 25-100 nM
PC-3 [29] = test: Induction of ROS generation in human PC-3 cells assessed as intracellular ROS level at 125 nM measured after 48 hrs by DCFH-DA staining based flowcytometry method (reference value: 55.2 %); type: functional
PC-3 [30] = test: Induction of ROS generation in human PC-3 cells assessed as intracellular ROS level at 250 nM measured after 48 hrs by DCFH-DA staining based flowcytometry method (reference value: 55.2 %); type: functional
DU-145 [31] = test: Induction of ROS generation in human DU-145 cells assessed as intracellular ROS level at 1.5 uM measured after 48 hrs by DCFH-DA staining based flowcytometry method (reference value: 52 %); type: functional
PC-3 [32] = test: Induction of ROS generation in human PC-3 cells assessed as intracellular ROS level at 250 nM pretreated with NAC followed by compound treatment measured after 48 hrs by DCFH-DA staining based flowcytometry method (reference value: 49.9 %); type: functional

Question: Which IC50 (DU-145 [1]) does the source give for `Cc1ccc(/C=N/NC(=S)Nc2ccc(C(=O)NCCc3c(C)[nH]c4ccccc34)cc2)nc1` here?
Answer: 1.44 µM

Question: And the IC50 (MCF7)?
Answer: 5.33 µM

Question: And the inhibition (PC-3 [2])?
Answer: Active

Question: And the inhibition (DU-145 [3])?
Answer: Active

Question: And the Activity (PC-3 [4])?
Answer: 19.98%

Question: And the Activity (DU-145 [5])?
Answer: Dose-dependent effect

Question: What about the Activity (PC-3 [6]) of the same compound?
Answer: Active

Question: What about the Activity (DU-145 [7]) of the same compound?
Answer: Active

Question: And the Activity (DU-145 [8])?
Answer: Active

Question: What about the viability at 0.025 µM (PC-3 [9]) of the same compound?
Answer: 98.5%

Question: And the Activity (PC-3 [10])?
Answer: 2.32%

Question: And the Activity (PC-3 [11])?
Answer: 4.36%

Question: What about the Activity (PC-3 [12]) of the same compound?
Answer: 5.6%

Question: And the Activity (PC-3 [13])?
Answer: 8.91%

Question: And the Activity (PC-3 [14])?
Answer: 5.76%

Question: And the viability at 0.5 µM (DU-145 [15])?
Answer: 90.2%

Question: And the viability at 1 µM (DU-145 [16])?
Answer: 62.1%

Question: And the Activity (DU-145 [17])?
Answer: 22.5%

Question: And the Activity (DU-145 [18])?
Answer: 38.5%

Question: What about the Activity (DU-145 [19]) of the same compound?
Answer: Active

Question: And the Activity (PC-3 [20])?
Answer: Dose-dependent effect

Question: What about the Activity (DU-145 [21]) of the same compound?
Answer: inactive

Question: And the Activity (DU-145 [22])?
Answer: Active

Question: What about the Activity (DU-145 [23]) of the same compound?
Answer: Active

Question: What about the inhibition (DU-145 [24]) of the same compound?
Answer: inactive

Question: And the Activity [25]?
Answer: Non-Toxic

Question: What about the Activity (PC-3 [26]) of the same compound?
Answer: 43.4%

Question: What about the Activity (DU-145 [27]) of the same compound?
Answer: Tde

Question: What about the Activity (PC-3 [28]) of the same compound?
Answer: Active

Question: What about the Activity (PC-3 [29]) of the same compound?
Answer: 75.4%

Question: And the Activity (PC-3 [30])?
Answer: 87%

Question: And the Activity (DU-145 [31])?
Answer: 71.3%

Question: What about the Activity (PC-3 [32]) of the same compound?
Answer: 74.5%
